Test results: publication PMC6492180, “Cytome micronucleus assays with a metabolically competent human derived liver cell line (Huh6): A promising approach for routine testing of chemicals?” (Environmental and Molecular Mutagenesis, 2018)
Like-named read-outs stand apart in the source and are kept apart here. Marks after values point to notes of the source that are not given here.

Legend:
[1] = test system: Huh6 cells
Method: All experiments were performed in duplicate.
3.8–4.0 × 10^5 cells per well were seeded into 6‐well plates with 3 mL of RPMI (4% FBS) for 12 hr, then dilutions of stock solutions of the diagnostic mutagens were added for different time periods (4, 24, and 48 hr). In each experimental series solvent controls were included. Subsequently, the cells were washed twice with 3.0 mL medium. […] Finally, the cells were washed and trypsinised. Afterwards the cells were washed twice with 8.0 mL RPMI and collected on slides by cytocentrifugation (600 rpm, 5 min). The slides were air dried, fixed, and stained with DiffQuick according to the instructions of the manufacturer. For each experimental point, two cultures were tested per dose. From each culture ≥1,000 BN cells were evaluated under 400‐fold magnification (Nikon Photophot‐FXA, Tokyo, Japan). At least 2,000 binucleated cells were analyzed per dose for the determination of the different nuclear anomalies (MN, NBuds, and NBs).
The experiments were performed as described in the previous chapter. The cells were exposed only to one dose of the different mutagens and were cultivated after the seeding in 6‐well plates which contained 4% or 10% FBS in RPMI, respectively.
Data were evaluated by generalized linear model with Poisson counts. Chi‐square tests for overdispersion were applied. […] P values ≤0.05 were considered statistically significant.
^150-60 000 cells were seeded in 6 well plates with 3 ml RPMI (4% FBS), subsequently different solutions of the test compound (dissolved in medium) were added. After treatment for different time periods, the cells was washed and processed as described in the Material and Method section. […] From each culture 1000 binoculated cells were evaluated. BN-MN – number of micronucleated cells; MN - total number of micronuclei; CBPI – cytokinesis-block proliferation index
^1The experiments were conducted essentially as described in the footnote of Table S1A-I. *p≤0.05

[2] = test system: HepaRG; settings: HepaRG; ref Josse et al., 2012; cited from earlier work
[3] = test system: Human lymphocytes; settings: cited from earlier work
[4] = test system: HepG2; settings: HepG2; ref Gajski et al., 2016; cited from earlier work
[5] = ref IARC (2018); cited from earlier work
[6] = 10% FBS, 24 hr treatment, 0.5 µg/ml
[7] = 10% FBS, 24 hr treatment, 1 µg/ml

c1ccc2c(c1)cc1ccc3cccc4ccc2c1c34 [B(a)P, Benzo(a)pyrene]
CBPI ([1]; 4% FBS, 4hrs, 5 µM): 1.6 ± 0.1 | CBPI ([1]; 4% FBS, 4hrs, 10 µM): 1.6 ± 0.0 | CBPI ([1]; 4% FBS, 4hrs, 20 µM): 1.6 ± 0.1 | CBPI ([1]; 4% FBS, 24hrs, 5 µM): 1.4 ± 0.1 | CBPI ([1]; 4% FBS, 24hrs, 10 µM): 1.2 ± 0.1 | CBPI ([1]; 4% FBS, 48hrs, 0.4 µM): 1.9 ± 0.0 | CBPI ([1]; 4% FBS, 48hrs, 5 µM): 1.1 ± 0.1 | CBPI ([1]; 10% FBS, 24 hr treatment, 5 µM): 1.7 ± 0.0 | CBPI ([1]; 10% FBS, 24 hr treatment, 10 µM): 1.3 ± 0.1

ClC(Cl)=C(c1ccc(Cl)cc1)c1ccc(Cl)cc1 [dichlorodiphenyldichloroethylene]
MN formation with the longer exposure time, treatment for 1 or 7 days (in words) [2]: no such effects

OO [H2O2, Hydrogen peroxide]
Change of MN rates after 48 hr treatment (in words) [1]: slight decrease | Induction of MN after 4 hr treatment (in words) [1]: did not cause an effect | Lowest effective concentration (LOEC) in micronucleus experiments [1]: 10.0 µM | MN effects after 24 hr (or longer) compared with 4 hr treatment (in words) [1]: more pronounced effects | MN frequencies with 10% serum compared with 4% serum (in words) [1]: not increased | Lowest effective concentration (LOEC) in micronucleus experiments [3]: 100 (Andreoli et al., 1999) μM

[NH2][Pt]([NH2])([Cl])[Cl] [CDDP, Cisplatin]
MN effects after 24 hr (or longer) compared with 4 hr treatment (in words) ([1]; 4% FBS): similar | Toxicity in MN experiment (Figure 3) ([1]; 4% FBS, 1.0 μg/ml, 48h): Toxic | BN-MN (number of micronucleated cells) ([1]; 4% FBS, 4hrs, 0.05 µg/ml): 16.0 ± 1.4 ‰ | Bridges ([1]; 4% FBS, 4hrs, 0.05 µg/ml): 0.0 ± 0.0 ‰ | Buds ([1]; 4% FBS, 4hrs, 0.05 µg/ml): 15.5 ± 2.1 ‰ | CBPI ([1]; 4% FBS, 4hrs, 0.05 µg/ml): 1.7 ± 0.1 | MN (total number of micronuclei) ([1]; 4% FBS, 4hrs, 0.05 µg/ml): 16.0 ± 1.4 ‰ | BN-MN (number of micronucleated cells) ([1]; 4% FBS, 4hrs, 0.1 µg/ml): 19.5 ± 0.7 ‰ | Bridges ([1]; 4% FBS, 4hrs, 0.1 µg/ml): 0.0 ± 0.0 ‰ | Buds ([1]; 4% FBS, 4hrs, 0.1 µg/ml): 16.5 ± 2.1 ‰ | CBPI ([1]; 4% FBS, 4hrs, 0.1 µg/ml): 1.6 ± 0.1 | MN (total number of micronuclei) ([1]; 4% FBS, 4hrs, 0.1 µg/ml): 20.0 ± 1.4 ‰ | BN-MN (number of micronucleated cells) ([1]; 4% FBS, 4hrs, 0.5 µg/ml): 19.5 ± 0.7 ‰ | Bridges ([1]; 4% FBS, 4hrs, 0.5 µg/ml): 0.0 ± 0.0 ‰ | Buds ([1]; 4% FBS, 4hrs, 0.5 µg/ml): 19.0 ± 1.4* ‰ | CBPI ([1]; 4% FBS, 4hrs, 0.5 µg/ml): 1.8 ± 0.1 | MN (total number of micronuclei) ([1]; 4% FBS, 4hrs, 0.5 µg/ml): 21.5 ± 0.7 ‰ | BN-MN (number of micronucleated cells) ([1]; 4% FBS, 4hrs, 1 µg/ml): 31.5 ± 5.0* ‰ | Bridges ([1]; 4% FBS, 4hrs, 1 µg/ml): 3.5 ± 0.7 ‰ | Buds ([1]; 4% FBS, 4hrs, 1 µg/ml): 34.0 ± 5.7* ‰ | CBPI ([1]; 4% FBS, 4hrs, 1 µg/ml): 1.5 ± 0.1 | MN (total number of micronuclei) ([1]; 4% FBS, 4hrs, 1 µg/ml): 33.5 ± 5.0* ‰ | BN-MN (number of micronucleated cells) ([1]; 4% FBS, 24hrs, 0.1 µg/ml): 13.5 ± 0.7 ‰ | Bridges ([1]; 4% FBS, 24hrs, 0.1 µg/ml): 0.0 ± 0.0 ‰ | Buds ([1]; 4% FBS, 24hrs, 0.1 µg/ml): 15.5 ± 0.7 ‰ | CBPI ([1]; 4% FBS, 24hrs, 0.1 µg/ml): 1.8 ± 0.1 | MN (total number of micronuclei) ([1]; 4% FBS, 24hrs, 0.1 µg/ml): 14.0 ± 0.0 ‰ | BN-MN (number of micronucleated cells) ([1]; 4% FBS, 24hrs, 0.5 µg/ml): 25.5 ± 0.7* ‰ | Bridges ([1]; 4% FBS, 24hrs, 0.5 µg/ml): 2.5 ± 0.7 ‰ | Buds ([1]; 4% FBS, 24hrs, 0.5 µg/ml): 30.5 ± 2.1* ‰ | CBPI ([1]; 4% FBS, 24hrs, 0.5 µg/ml): 2.0 ± 0.0 | MN (total number of micronuclei) ([1]; 4% FBS, 24hrs, 0.5 µg/ml): 34.0 ± 1.4* ‰ | BN-MN (number of micronucleated cells) ([1]; 4% FBS, 24hrs, 1 µg/ml): 29.5 ± 0.7* ‰ | Bridges ([1]; 4% FBS, 24hrs, 1 µg/ml): 5.0 ± 1.4 ‰ | Buds ([1]; 4% FBS, 24hrs, 1 µg/ml): 36.0 ± 2.8* ‰ | CBPI ([1]; 4% FBS, 24hrs, 1 µg/ml): 1.8 ± 0.0 | MN (total number of micronuclei) ([1]; 4% FBS, 24hrs, 1 µg/ml): 35.0 ± 1.4* ‰ | BN-MN (number of micronucleated cells) ([1]; 4% FBS, 48hrs, 0.1 µg/ml): 16.5 ± 0.7 ‰ | Bridges ([1]; 4% FBS, 48hrs, 0.1 µg/ml): 0.0 ± 0.0 ‰ | Buds ([1]; 4% FBS, 48hrs, 0.1 µg/ml): 21.5 ± 2.1 ‰ | CBPI ([1]; 4% FBS, 48hrs, 0.1 µg/ml): 1.6 ± 0.0 | MN (total number of micronuclei) ([1]; 4% FBS, 48hrs, 0.1 µg/ml): 17.0 ± 1.4 ‰ | CBPI ([1]; 4% FBS, 48hrs, 1 µg/ml): 1.2 ± 0.1 | BN-MN (number of micronucleated cells) ([1]; 4% FBS, 48hrs, […]): 20.0 ± 1.4 ‰ | MN (total number of micronuclei) ([1]; 4% FBS, 48hrs, […]): 20.5 ± 0.7 ‰ | BN-MN (number of micronucleated cells) [1, 6]: 38.0 ± 1.4* | Bridges [1, 6]: 0.5 ± 0.7 | Buds [1, 6]: 32.0 ± 5.7* | CBPI [1, 6]: 1.9 ± 0.0 | MN (total number of micronuclei) [1, 6]: 40.5 ± 0.7* | BN-MN (number of micronucleated cells) [1, 7]: 46.5 ± 2.1* | Buds [1, 7]: 49.0 ± 2.8* | CBPI [1, 7]: 1.9 ± 0.1 | MN (total number of micronuclei) [1, 7]: 50.0 ± 1.4* | MN frequencies with 10% serum compared with 4% serum (in words) ([1]; 24 hr treatment): pronounced increase | Lowest effective concentration (LOEC) in micronucleus experiments ([1]; Huh6): 0.5 µg/mL | Lowest effective concentration (LOEC) in micronucleus experiments [4]: 0.1 (Gajski et al., 2016) μg/mL | Lowest effective concentration (LOEC) in micronucleus experiments ([3]; Human lymphocytes, ref Fowler et al., 2014): 1.0 (Fowler et al., 2014) μg/mL | IARC classification [5]: Crosslinking agent; causes different types of DNA damage (gene mutations and CA); IARC: Group 2A
